Results published in patent EP1673349B1, “BENZIMIDAZOLE DERIVATIVES: PREPARATION AND PHARMACEUTICAL APPLICATIONS” (priority 2003, dated 2005).
Read-outs that look alike come from different tables or passages of the source.

Assays:
[1] = biological target: HDAC8 enzyme; test: In vitro HDAC assay (BIOMOL fluorescent-based HDAC activity assay), HDAC8; type: biochemical, human
Protocol: (§2) Expression of GST-HDAC1 or HTGST-HDAC8 was done by infecting SF9 cells (Invitrogen Pte Ltd) with pDEST20-HDAC1 or pFASTBAC-GST-HDAC8 baculovirus at MOI=1 for 48 h. Soluble cell lysate was incubated with pre-equilibrated Glutathione Sepharose 4B beads (Amersham) at 4°C for 2 h. The beads were washed with PBS buffer for 3 times. The GST-HDAC1 protein or GST-HDAC8 protein was eluted by elution buffer containing 50 mM Tris, pH8.0, 150mM NaCl, 1% Triton X-100 and 10mM or 20mM reduced Glutathione. The purified GST-HDAC1 protein or purified GST-HDAC8 protein was dialyzed with HDAC storage buffer containing 10mM Tris, pH7.5, 100mM NaCl and 3mM MgCl2. 20% Glycerol was added to purified GST-HDAC1 protein or purified GST-HDAC8 before storage at -80°C.

[2] = test system: Colo205; test: Cell-based proliferation assay (cyquant), Colo205; set-up: species or system human; conditions: Homo sapiens;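 note: Colo205 cells exposed for 96 h to a range of compound concentrations, growth read by CyQUANT, GI50 taken from plotted dose-response curves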
Protocol: (§3) Human colon cancer cell lines (Colo205 and HCT116), human breast cancer cell lines (MDA-MB435 and MDA-MB231), and human lung cancer cell line (A549) were obtained from ATCC. […] MDA-MB435 cells were cultivated in DMEM containing 2 mM L-Glutamine, 5% FBS. HCT116 cells were cultivated in IMEM containing 2 mM L-Glutamine, 5% FBS. A549 and Colo205 cells were seeded in 96-wells plate at 2000 and 5000 cells per well respectively. MDA-MB435, HCT116, MDA-MB231 cells were seeded in 96-wells plate at 6000 cells per well. The plates were incubated at 37°C, 5% CO2, for 24 h. Cells, were treated with compounds at various concentration for 96 h. Cell growth was then monitored using cyquant cell proliferation assay (Invitrogen Pte Ltd). Dose response curves were plotted to determine GI50 values for the compounds using XL-fist.

[3] = test system: MDA-MB435; test: Cell-based proliferation assay (cyquant), MDA-MB435; set-up: species or system human; conditions: Homo sapiens, MDA-MB-435;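 note: GI50 taken from dose–response curves over a range of compound concentrations, with cell growth quantified by the CyQUANT proliferation assay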
Protocol: as §3

[4] = test system: acetylated H3; test: Histone acetylation assay by immuno-blotting, acetylated H3; type: cell-based, human; conditions: Colo205 cells, 0.1, 1, 5 and 10 µM, 24 h, western blot
Protocol: (§1) A hallmark of histone deacetylase (HDAC) inhibition is the increase in the acetylation level of histones. Histone acetylation, including H3, H4 and H2A can be detected by immuno-blotting (westem-blot). Colo205 cells, approximately 1.5 x10^6 cells/ 10 cm dish, were seeded in the previously described medium, cultivated for 24 h and subsequently treated with HDAC inhibitory agents at 0.1, 1; 5 and 10 µM final concentration. After 24 h, cells were harvested and lysed according to the instruction from Sigma Mammalian Cell Lysis Kit. The protein concentration was quantified using BCA method (Sigma Pte Ltd). The protein lysate was separated using 4-12% bis-tris SDS-PAGE gel (Invitrogen Pte Ltd) and was transferred onto PVDF membrane (BioRad Pte Ltd). The membrane was probed separately using primary antibody specific for acetylated H3, acetylated H4 or acetylated H2A (Upstate Pte Ltd). The detection antibody, goat anti rabbit antibody conjugated with HRP was used according to the manufacturing instruction (Pierce Pte Ltd). After removing the detection antibody from the membrane, an enhanced chemiluminescent substrate for detection of HRP (Pierce Pte Ltd) was added onto the membrane. After removing the substrate, the membrane was exposed to an X-ray film (Kodak) for 1 sec - 20 mins. The X-ray film was developed using the X-ray film processor. The density of each band observed on the developed film could be analysed using UVP Bioimaging software (UVP, Inc, Upland, CA). The values were then normalized against the density of actin in the corresponding samples to obtain the expression of the protein.

[5] = test system: acetylated H4; test: Histone acetylation assay by immuno-blotting, acetylated H4; type: cell-based, human; conditions: Colo205 cells, 0.1, 1, 5 and 10 µM, 24 h, western blot
Protocol: as §1

[6] = test system: acetylated H2A; test: Histone acetylation assay by immuno-blotting, acetylated H2A; type: cell-based, human; conditions: Colo205 cells, 0.1, 1, 5 and 10 µM, 24 h, western blot
Protocol: as §1

[7] = test system: HDAC3; test: In vitro HDAC assay, HDAC3; type: biochemical; conditions: Table 5; Free base
Protocol: The assay has been carried, out in 96 well format and the BIOMOL fluorescent-based HDAC activity assay has been applied. […] Flur de lys Developer was added and the reaction was incubated for 10 min. Briefly, deacetylation of the substrate sensitizes it to the developer, which then generates a fluorophore (symbol). The fluorophore is excited with 360 nm light and the emitted light (460 nm) is detected on a fluorometric plate reader (Tecan Ultra Microplate detection system, Tecan Group Ltd.).
The analytical software, Prism 3.0 has been used to generate IC50 from a series of data.

[8] = test system: HCT116; test: Cell-based proliferation assay (cyquant), HCT116; conditions: Homo sapiens, HCT-116; Table 5; Free base
Protocol: as §3

[9] = test system: MDA-MB231; test: Cell-based proliferation assay (cyquant), MDA-MB231; conditions: Homo sapiens, MDA-MB-231; Table 5; Free base
Protocol: as §3

[10] = test system: A549; test: Cell-based proliferation assay (cyquant), A549; conditions: Homo sapiens, Table 5, Free base
Protocol: as §3

[11] = biological target: HDAC1 enzyme (Homo sapiens, UniProt Q13547); test: In vitro HDAC assay (BIOMOL fluorescent-based HDAC activity assay), HDAC1; type: biochemical
Protocol: as §2

[12] = Table 3, read-out: HDAC8 Enzyme Activity IC50
[13] = COLO 205, 96 h, Table 4, 96 h treatment
[14] = COLO 205, Table 5, Salt of CF3COOH
[15] = COLO 205, Table 4, 96 h treatment
[16] = Table 5, Salt of CF3COOH, read-out: IC50 (HDAC1)
[17] = Table 5, Free base, read-out: IC50 (HDAC8)

HDAC1 enzyme, sequence (Q13547 whole entry): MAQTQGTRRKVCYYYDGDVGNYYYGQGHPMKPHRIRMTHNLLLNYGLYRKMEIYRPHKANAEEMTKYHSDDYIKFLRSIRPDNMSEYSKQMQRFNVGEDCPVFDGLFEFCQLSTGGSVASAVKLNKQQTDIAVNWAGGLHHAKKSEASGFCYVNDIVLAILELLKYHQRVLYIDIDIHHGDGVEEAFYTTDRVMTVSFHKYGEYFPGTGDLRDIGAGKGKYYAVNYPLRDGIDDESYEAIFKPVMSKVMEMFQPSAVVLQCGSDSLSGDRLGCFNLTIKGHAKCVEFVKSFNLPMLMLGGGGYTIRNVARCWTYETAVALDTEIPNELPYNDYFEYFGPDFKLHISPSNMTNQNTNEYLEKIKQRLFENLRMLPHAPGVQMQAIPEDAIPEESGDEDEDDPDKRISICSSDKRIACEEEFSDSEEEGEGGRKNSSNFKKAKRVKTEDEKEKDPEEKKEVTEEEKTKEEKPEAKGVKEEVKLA

Work on `CC(Cc1nc2cc(/C=C/C(=O)NO)ccc2n1CCCO)c1ccccc1` (stereo not drawn) [Compound 1, N-Hydroxy-3-[1-(3-hydroxy-propyl)-2-(2-phenyl-propyl)-1H-benzimidazol-5-yl]-acrylamide] yielded an IC50 [1, 12] of 119 nM, a GI50 [2, 13] of 520 nM and a GI50 ([3]; Table 4, 96 h treatment) of 1640 nM. The “Histone acetylation activities Histone-3” value [4] was “Active”, the “Histone acetylation activities Histone-4” value [5] was “Active” and the “Histone acetylation activities Histone-2A” value [6] was “Active”.
`COc1cc(Cn2c(CCc3ccccc3)nc3cc(/C=C/C(=O)NO)ccc32)cc(OC)c1OC` [Compound 2, N-Hydroxy-3-[1-(3,4,5-trimethoxybenzyl)-2-(2-phenyl-ethyl)-1H-benzimidazol-5-yl]-acrylamide] gave an IC50 [1, 12] of 355 nM, an IC50 [7] of 64 nM and a GI50 [2, 13] of 430 nM. The GI50 ([2]; COLO 205, Table 5, Free base) was 400 nM, the GI50 [2, 14] was 400 nM and the GI50 ([3]; Table 4, 96 h treatment) was 320 nM. For the same compound, the GI50 ([3]; Table 5, Free base) was 300 nM, the GI50 [8] was 400 nM and the GI50 [9] was 500 nM. For the same compound, the GI50 [10] was 300 nM, the “Histone acetylation activities Histone-3” value [4] was “Active” and the “Histone acetylation activities Histone-4” value [5] was “Active”. For the same compound, the “Histone acetylation activities Histone-2A” value [6] was “Active”.
`O=C(/C=C/c1ccc2c(c1)nc(CCc1ccccc1)n2Cc1cccnc1)NO` [Compound 12, N-Hydroxy-3-[1-(3-pyridylmethyl)-2-(2-phenyl-ethyl)-1H-benzimidazol-5-yl]-acrylamide] was tested, and the IC50 [1, 12] was 202 nM, the GI50 [2, 15] was 380 nM and the GI50 ([3]; Table 4, 96 h treatment) was 1070 nM. The “Histone acetylation activities Histone-3” value [4] was “Active” and the “Histone acetylation activities Histone-4” value [5] was “Active”.
`O=C(/C=C/c1ccc2c(c1)nc(CCc1ccccc1)n2CCCO)NO` [Compound 14, N-Hydroxy-3-[1-(3-hydroxy-propyl)-2-phenethyl-1H-benzimidazol-5-yl]-acrylamide] gave an IC50 [1, 12] of 251 nM, a GI50 [2, 13] of 3070 nM and a GI50 ([3]; Table 4, 96 h treatment) of 5990 nM.
`CN(C)CC(C)(C)Cn1c(CCc2ccccc2)nc2cc(/C=C/C(=O)NO)ccc21` [Compound 17, N-Hydroxy-3-[1-(3-Dimethylamino-2,2-dimethyl-proppyl)-2-phenethyl-1H-benzimidazol-5-yl]-acrylamide] showed an IC50 ([11]; Table 3, read-out: HDAC1 Enzyme Activity IC50) of 24 nM, an IC50 [11, 16] of 24 nM and an IC50 [1, 12] of 353 nM. It also gave an IC50 [1, 17] of 353 nM, a GI50 [2, 13] of 60 nM and a GI50 ([2]; COLO 205, Table 5, Free base) of 60 nM. The GI50 [2, 14] was 110 nM, the GI50 ([2]; COLO 205, Table 5, Salt of HCl) was 60 nM and the GI50 ([2]; COLO 205, Table 5, Salt of Methane sulfonic acid) was 40 nM. The GI50 ([3]; Table 4, 96 h treatment) was 560 nM, the GI50 ([3]; Table 5, Free base) was 600 nM and the GI50 [8] was 300 nM. For the same compound, the GI50 [9] was 700 nM, the GI50 [10] was 200 nM and the “Histone acetylation activities Histone-3” value [4] was “Active”. For the same compound, the “Histone acetylation activities Histone-4” value [5] was “Active” and the “Histone acetylation activities Histone-2A” value [6] was “Active”.
Compound `O=C(/C=C/c1ccc2c(c1)nc(-c1ccsc1)n2CCCO)NO` [Compound 20, N-Hydroxy-3-[1-(3-hydroxy-propyl)-2-thiophen-3-yl-1H-benzimidazol-5-yl]-acrylamide] has an IC50 [1, 12] of 537 nM, a GI50 [2, 13] of 30900 nM and a GI50 ([3]; Table 4, 96 h treatment) of 37200 nM.
Work on `CC(C)Cc1nc2cc(/C=C/C(=O)NO)ccc2n1CCCO` [Compound 21, N-Hydroxy-3-[1-(3-hydroxy-propyl)-2-isobutyl-1H-benzimidazol-5-yl]-acrylamide] yielded an IC50 [1, 12] of 238 nM, a GI50 [2, 13] of 25900 nM and a GI50 ([3]; Table 4, 96 h treatment) of 30300 nM.
`CCCCCCCCc1nc2cc(/C=C/C(=O)NO)ccc2n1CCCO` [Compound 23, N-Hydroxy-3-[1-(3-hydroxy-propyl)-2-octyl-1H-benzimidazol-5-yl]-acrylamide] was tested, and the IC50 [1, 12] was 402 nM, the GI50 [2, 13] was 3650 nM and the GI50 ([3]; Table 4, 96 h treatment) was 3720 nM.
For `O=C(/C=C/c1ccc2c(c1)nc(CCc1ccccc1)n2CCc1cccnc1)NO` [Compound 27, N-Hydroxy-3-(2-phenethyl-1-(2-pyridin-3-yl-ethyl)-1H-benzimidazol-5-yl]-acrylamide], the IC50 [1, 12] was 329 nM, the GI50 [2, 15] was 2230 nM and the GI50 ([3]; Table 4, 96 h treatment) was 3440 nM.
Work on `O=C(/C=C/c1ccc2c(c1)nc(CCc1ccccc1)n2CCCN1CCCC1=O)NO` [Compound 30, N-Hydroxy-3-{1-[3-(2-oxo-pyrrolidin-1-yl)-propyl]-2-phenethyl-1H-benzimidazol-5-yl}-acrylamide] yielded an IC50 [1, 12] of 724 nM, a GI50 [2, 13] of 11400 nM and a GI50 ([3]; Table 4, 96 h treatment) of 19800 nM.
`O=C(/C=C/c1ccc2c(c1)nc(CCc1ccccc1)n2Cc1ccccc1)NO` [Compound 33, N-Hydroxy-3-(1-Benzyl-2-phenethyl-1H-benzimidazol-5-yl)-acrylamide] gave an IC50 [1, 12] of 1450 nM, a GI50 [2, 13] of 1540 nM and a GI50 ([3]; Table 4, 96 h treatment) of 3380 nM.
For `O=C(/C=C/c1ccc2c(c1)ncn2Cc1ccccc1)NO` [Compound 35, N-Hydroxy-3-(1-Benzyl-1H-benzimidazol-5-yl)-acrylamide], the IC50 [1, 12] was 412 nM, the GI50 [2, 13] was 1890 nM and the GI50 ([3]; Table 4, 96 h treatment) was 6760 nM.
For `CCn1c(C)nc2cc(/C=C/C(=O)NO)ccc21` [Compound 43, N-Hydroxy-3-(1-Ethyl-2-methyl-1H-benzimidazol-5-yl]-acrylamide], the IC50 [1, 12] was 192 nM, the GI50 [2, 15] was 9180 nM and the GI50 ([3]; Table 4, 96 h treatment) was 8620 nM.
`O=C(/C=C/c1ccc2c(c1)nc(CCc1ccccc1)n2CCN1CCCCC1)NO` [Compound 67, N-Hydroxy-3-[2-phenethyl-1-(piperidin-1-yl-ethyl)-1H-benzimidazol-5-yl]-acrylamide] was tested, and the IC50 [11, 16] was 39 nM, the IC50 [1, 17] was 254 nM and the IC50 [7] was 56 nM. The GI50 [2, 13] was 80 nM, the GI50 ([2]; COLO 205, Table 5, Free base) was 90 nM and the GI50 [2, 14] was 90 nM. It also gave a GI50 ([3]; Table 5, Free base) of 190 nM, a GI50 [8] of 60 nM and a GI50 [9] of 60 nM. The GI50 [10] was 80 nM, the “Histone acetylation activities Histone-3” value [4] was “Active” and the “Histone acetylation activities Histone-4” value [5] was “Active”. For the same compound, the “Histone acetylation activities Histone-2A” value [6] was “Active”.
